Broadly, the Kd is the concentration at which binding is half-saturated.

For this experiment, the target named is T1, N1RIS1_FUSC4 (CYP51 of TR4; Eburicol 14-alpha-demethylase) (Fusarium odoratissimum, UniProt N1RIS1).
T1 construct: gene FOC4_g10015154
T1 sequence (N1RIS1 1-527): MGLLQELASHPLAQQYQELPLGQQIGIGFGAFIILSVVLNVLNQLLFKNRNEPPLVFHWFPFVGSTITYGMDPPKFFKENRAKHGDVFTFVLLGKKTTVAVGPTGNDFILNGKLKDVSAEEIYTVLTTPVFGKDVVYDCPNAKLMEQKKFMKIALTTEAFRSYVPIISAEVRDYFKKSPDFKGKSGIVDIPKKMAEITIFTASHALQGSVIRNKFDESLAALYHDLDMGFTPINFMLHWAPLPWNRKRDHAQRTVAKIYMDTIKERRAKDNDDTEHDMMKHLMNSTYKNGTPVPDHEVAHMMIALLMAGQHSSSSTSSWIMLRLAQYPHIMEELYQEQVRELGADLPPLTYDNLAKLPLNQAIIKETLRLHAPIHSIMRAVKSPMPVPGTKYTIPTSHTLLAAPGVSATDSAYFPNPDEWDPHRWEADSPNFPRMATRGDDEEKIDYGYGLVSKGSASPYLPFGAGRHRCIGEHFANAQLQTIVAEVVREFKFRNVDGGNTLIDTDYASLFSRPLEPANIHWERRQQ
The experiment in a line: SPR (Biacore T200, protein amine-coupled on CM5 chip, […] kinetic fit). The class given is binding. As to conditions: 25 °C; 3.125-50 μM analyte. (In SPR one partner is held on a chip, and binding of the other changes the refractive index at the surface.)

Compound `O[C@](Cc1ccccc1Cl)(Cn1[nH]cnc1=S)C1(Cl)CC1` [R-Pro] gave a dissociation constant Kd of 0.342 nM.
